Test results reported in patent US20250205197A1.
“Also recorded” adds a separate entry of the source.

Legend:
5-HT1A receptor = target: T1, 5-HT1A receptor (Homo sapiens, UniProt P08908); test: cAMP-Glo assay of 5-HT1A receptor modulation, CHO-K1/5-HT1A/Ga15 vs CHO-K1/Ga15 cells; type: cell-based; details: for 5-HT1A receptor modulation (cAMP, +5-HT1A vs −5-HT1A cultures): forskolin-stimulated cells, 20 minutes treatment; for cAMP levels with increasing ligand: +5-HT1A cells stimulated with forskolin, control ligands
T1 construct: host or cells: CHO-K1 (co-expressing Ga15)
T1 sequence (P08908 1-422): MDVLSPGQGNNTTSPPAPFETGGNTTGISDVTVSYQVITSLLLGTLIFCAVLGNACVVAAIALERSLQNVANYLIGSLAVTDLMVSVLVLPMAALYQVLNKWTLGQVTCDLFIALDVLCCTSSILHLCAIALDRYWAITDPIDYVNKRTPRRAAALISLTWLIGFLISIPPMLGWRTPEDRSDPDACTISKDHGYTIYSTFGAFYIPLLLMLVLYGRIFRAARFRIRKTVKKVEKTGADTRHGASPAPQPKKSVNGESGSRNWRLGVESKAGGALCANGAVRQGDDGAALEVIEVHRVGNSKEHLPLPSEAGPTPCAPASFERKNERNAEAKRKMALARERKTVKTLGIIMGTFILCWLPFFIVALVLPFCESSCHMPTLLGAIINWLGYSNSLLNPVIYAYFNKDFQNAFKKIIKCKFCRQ

[1] = Solubility of the salt in water
5-HT2A receptor [2] = target: T2, 5-HT2A receptor (Mus musculus, UniProt P35363); test: Drug-induced Head Twitch Response (HTR) in mice; type: in vivo; details: i.p. 1 mg/kg; for Head Twitch Response (HTR): 15-to-30-minute window following administration, relative to vehicle
T2 construct: tissue Charles River; host or cells: living C57BL/6-Elite mice (brain, in vivo)

[3] = In vitro metabolic stability assay, human AB serum; type: in vitro ADME; details: 10% human AB serum
Text: (§1) A fundamental evaluation in drug development is the assessment of absorption, distribution, metabolism, excretion, and pharmacokinetics (ADME/PK) (Eddershaw et al., 2000, Drug Discovery Today 5(9): 409-414). […] Drug stability upon exposure to human liver microsomes and liver S9 cellular fractions is a common in vitro assay to approximate in vivo, liver-based drug metabolism (Richardson et al., 2016 Drug Metabolism Letters 10:83-90). First-pass metabolism is also often approximated in vitro using intestinal microsome and cellular S9 fractions (Hatley et al., 2017, Biopharmaceuticals & Drug Disposition, 38(2):155-160). Further, it is well known that human serum, and particularly circulating serum esterases can contribute to systemic drug metabolism (Williams, F M 1987, Pharmacology and Therapeutics, 34:99-109). Many pharmacological agents are classified as prodrugs, as they undergo metabolic transformation in vivo upon administration to release the active drug compound into the systemic compartment (Zawilska J B, et al. 2013, Pharmacological Reports, 65:1-14). Psilocybin, a serotonergic psychedelic agent, is well known prodrug that is metabolized into the psychoactive product, psilocin (Dinis-Oliveira, R J 2017, Drug Metabolism Reviews, 49(1):84-91). […] Supernatants were analyzed for the presence of candidate prodrugs (parent molecule) and psilocin (the predicted metabolite) using Orbitrap LC-MS (Thermo Scientific) using previously described methods (Menéndez-Perdomo et al., 2021, J Mass Spectrom, 56: e4683). […] Assay concentrations (μM) of both parent ‘prodrug’ molecule and psilocin metabolite, as quantified through LC-MS using routine standard curve procedures, were plotted as functions of assay time (minutes). The metabolism rate (T1/2) was determined from the metabolism curve plot using the one phase decay feature of GraphPad PRISM software (Version 9.2.0). The quantity of parent prodrug at time zero was set as 100%. […]

[4] = Stability assay in enzyme-free control buffer; type: in vitro ADME; details: negative control buffer, pH 7.4
Text: as §1, with “38(2):155-160).” for “38(2):155-160). Further, it is well known that human serum, and particularly circulating serum esterases can contribute to systemic drug metabolism (Williams, F M 1987, Pharmacology and Therapeutics, 34:99-109). Many pharmacological agents are classified as prodrugs, as they undergo metabolic transformation in vivo upon administration to release the active drug compound into the systemic compartment (Zawilska J B, et al. 2013, Pharmacological Reports, 65:1-14). Psilocybin, a serotonergic psychedelic agent, is well known prodrug that is metabolized into the psychoactive product, psilocin (Dinis-Oliveira, R J 2017, Drug Metabolism Reviews, 49(1):84-91).”

[5] = In vitro metabolic stability and psilocin-release assays, statements covering several fractions; type: in vitro ADME, human
Text: as §1

HepG2 cells = test: PrestoBlue cell viability assay in HepG2 cells; type: cell-based, human; details: 48 hours incubation
Text: Methanol or DMSO were used as vehicles, at concentrations 0, 0.001, 0.01, 0.1, and 1% (methanol) or 0, 0.001, 0.01, 0.1, and 1% (DMSO), respectively. […] Non-treated cells were assigned 100% viability. Bar graphs show the mean+/−SD, n=3.
Non-treated cells were assigned 100% viability. Bar graphs show the mean+/−SD, n=3.

[6] = Mouse pharmacokinetic (PK) evaluation of drug metabolism to psilocin; type: in vivo, C57Bl/6 mice; details: mice
5-HT2A receptor [7] = target: 5-HT2A receptor (Homo sapiens, UniProt P28223); test: [3H]ketanserin radioligand competition binding assay (SPA); details: [3H]ketanserin competition
[8] = In vitro metabolic stability assay, human liver microsomes; type: in vitro ADME; details: HLM fraction, 37° C., NADPH
Text: as §1, with “38(2):155-160).” for “38(2):155-160). Further, it is well known that human serum, and particularly circulating serum esterases can contribute to systemic drug metabolism (Williams, F M 1987, Pharmacology and Therapeutics, 34:99-109). Many pharmacological agents are classified as prodrugs, as they undergo metabolic transformation in vivo upon administration to release the active drug compound into the systemic compartment (Zawilska J B, et al. 2013, Pharmacological Reports, 65:1-14). Psilocybin, a serotonergic psychedelic agent, is well known prodrug that is metabolized into the psychoactive product, psilocin (Dinis-Oliveira, R J 2017, Drug Metabolism Reviews, 49(1):84-91).”

[9] = In vitro metabolic stability assay, human liver S9 fractions; type: in vitro ADME; details: HLS9 fraction, 37° C., NADPH
Text: as §1, with “38(2):155-160).” for “38(2):155-160). Further, it is well known that human serum, and particularly circulating serum esterases can contribute to systemic drug metabolism (Williams, F M 1987, Pharmacology and Therapeutics, 34:99-109). Many pharmacological agents are classified as prodrugs, as they undergo metabolic transformation in vivo upon administration to release the active drug compound into the systemic compartment (Zawilska J B, et al. 2013, Pharmacological Reports, 65:1-14). Psilocybin, a serotonergic psychedelic agent, is well known prodrug that is metabolized into the psychoactive product, psilocin (Dinis-Oliveira, R J 2017, Drug Metabolism Reviews, 49(1):84-91).”

T2 sequence (P35363 whole entry): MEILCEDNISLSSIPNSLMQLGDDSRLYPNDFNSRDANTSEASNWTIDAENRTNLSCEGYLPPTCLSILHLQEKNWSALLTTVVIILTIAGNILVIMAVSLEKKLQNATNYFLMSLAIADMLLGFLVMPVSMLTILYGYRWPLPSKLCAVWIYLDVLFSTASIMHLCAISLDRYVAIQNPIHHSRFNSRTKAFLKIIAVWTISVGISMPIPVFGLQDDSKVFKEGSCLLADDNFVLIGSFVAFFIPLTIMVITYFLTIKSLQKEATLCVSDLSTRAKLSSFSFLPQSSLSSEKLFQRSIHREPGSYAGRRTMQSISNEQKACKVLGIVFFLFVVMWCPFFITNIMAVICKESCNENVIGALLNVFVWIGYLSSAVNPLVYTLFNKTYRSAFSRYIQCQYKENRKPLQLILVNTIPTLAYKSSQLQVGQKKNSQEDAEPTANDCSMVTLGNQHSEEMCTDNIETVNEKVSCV
5-HT2A receptor (Homo sapiens, UniProt P28223), sequence (P28223 whole entry): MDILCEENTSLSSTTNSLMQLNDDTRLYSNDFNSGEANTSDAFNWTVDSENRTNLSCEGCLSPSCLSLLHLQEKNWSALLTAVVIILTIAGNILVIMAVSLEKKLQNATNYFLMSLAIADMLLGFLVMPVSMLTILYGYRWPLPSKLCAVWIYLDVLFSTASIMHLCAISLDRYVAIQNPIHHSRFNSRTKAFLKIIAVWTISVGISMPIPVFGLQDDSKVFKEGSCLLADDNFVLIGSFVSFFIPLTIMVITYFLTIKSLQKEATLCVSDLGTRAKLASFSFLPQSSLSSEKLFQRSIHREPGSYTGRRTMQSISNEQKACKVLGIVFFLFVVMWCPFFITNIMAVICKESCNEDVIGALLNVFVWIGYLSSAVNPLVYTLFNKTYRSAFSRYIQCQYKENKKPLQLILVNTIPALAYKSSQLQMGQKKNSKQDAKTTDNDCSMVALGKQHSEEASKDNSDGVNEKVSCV

COC(=O)c1cccc(C(=O)Oc2cccc3[nH]cc(CCN(C)C)c23)c1 [C(XLIII)]
5-HT1A receptor modulation (cAMP, +5-HT1A vs −5-HT1A cultures) (5-HT1A receptor): receptor modulation at higher ligand concentrations

CN(C)CCc1c[nH]c2cccc(OC(=O)SCc3ccccc3)c12 [E(VIb1)]
solubility [1]: > 10 mg/mL

CN(C)CCc1c[nH]c2cccc(OC(=O)c3cccc4c3OCCO4)c12 [C(XX)]
5-HT1A receptor modulation (cAMP, +5-HT1A vs −5-HT1A cultures) (5-HT1A receptor): significant receptor modulation
Head Twitch Response (HTR) (5-HT2A receptor [2]): Elevated incidences of HTR

CN(C)CCc1c[nH]c2cccc(OP(=O)(O)O)c12 [psilocybin]
stability / dissociation to psilocin in serum [3]: stable in serum with no conversion to psilocin
stability in assay buffer [4]: stability of psilocybin was confirmed in assay buffer
stability / conversion to psilocin in liver fractions ([5]; liver fractions (HLM, HLS9)): stable in liver fractions with no conversion to psilocin

COc1ccc(C(=O)Oc2cccc3[nH]cc(CCN(C)C)c23)cc1 [C(V)]
5-HT1A receptor modulation (cAMP, +5-HT1A vs −5-HT1A cultures) (5-HT1A receptor): mild receptor modulation at higher ligand concentrations
Head Twitch Response (HTR) (5-HT2A receptor [2]): Elevated incidences of HTR

COCCOCCOCC(=O)Oc1cccc2[nH]cc(CCN(C)C)c12 [C(III)]
5-HT1A receptor modulation (cAMP, +5-HT1A vs −5-HT1A cultures) (5-HT1A receptor): significant receptor modulation
Head Twitch Response (HTR) (5-HT2A receptor [2]): Elevated incidences of HTR

CN(C)CCc1c[nH]c2cccc(OC(=O)c3ccc(Br)cc3)c12 [C(I)]
5-HT1A receptor modulation (cAMP, +5-HT1A vs −5-HT1A cultures) (5-HT1A receptor): mild receptor modulation at higher ligand concentrations
Head Twitch Response (HTR) (5-HT2A receptor [2]): Elevated incidences of HTR

COc1ccc(C(=O)Oc2cccc3[nH]cc(CCN(C)C)c23)cc1.O=C(O)C(O)C(O)C(=O)O [C(Va2)]
solubility in water [1]: ≥ 10 mg per mL

NCCc1c[nH]c2ccc(O)cc12 [serotonin, reference compound]
cAMP levels with increasing ligand (5-HT1A receptor): reduction in cAMP levels

CN(C)CCc1c[nH]c2cccc(OC(=O)OCc3ccccc3)c12 [B(II)]
CD50 (cytotoxicity, cell viability) (HepG2 cells): 65.9 µM
stability / dissociation to psilocin in serum [3]: failed completely to dissociate
dissociation to psilocin ([5]; HLM, HLS9, HIM, HIS9, AB serum, buffer control): did not readily dissociate to psilocin under any conditions
Head Twitch Response (HTR) (5-HT2A receptor [2]): elicit head twitching
time the derivative resides in plasma post-dosing ([6]; oral 10 mg/kg): up to 4 hours

N[C@@H](Cc1c[nH]c2ccccc12)C(=O)O [tryptophan, reference compound]
cAMP levels with increasing ligand (5-HT1A receptor): no reduction in cellular cAMP levels
competition binding at 5-HT2A (controls, in words) (5-HT2A receptor [7]): no binding

COc1ccc(C(=O)Oc2cccc3[nH]cc(CCN(C)C)c23)cc1 [C(Vb1)]
solubility in water [1]: < 1 mg in a mL

CN(C)CCc1c[nH]c2cccc(OC(=O)c3cccc(C(=O)Oc4cccc5[nH]cc(CCN(C)C)c45)c3)c12 [C(VII)]
5-HT1A receptor modulation (cAMP, +5-HT1A vs −5-HT1A cultures) (5-HT1A receptor): no significant receptor modulation
Head Twitch Response (HTR) (5-HT2A receptor [2]): Elevated incidences of HTR

CN(C)CCc1c[nH]c2cccc(OC(=O)CC3CC3)c12 [C(IV)]
5-HT1A receptor modulation (cAMP, +5-HT1A vs −5-HT1A cultures) (5-HT1A receptor): significant receptor modulation
Head Twitch Response (HTR) (5-HT2A receptor [2]): Elevated incidences of HTR

CN(C)CCc1c[nH]c2cccc(O)c12 [psilocin, reference compound]
cAMP levels with increasing ligand (5-HT1A receptor): reduction in cAMP levels
competition binding at 5-HT2A (controls, in words) (5-HT2A receptor [7]): binding

CN(C)CCc1c[nH]c2cccc(OC(=O)c3c(F)c(F)c(F)c(F)c3F)c12 [C(VI)]
5-HT1A receptor modulation (cAMP, +5-HT1A vs −5-HT1A cultures) (5-HT1A receptor): no receptor modulation at higher ligand concentrations
Head Twitch Response (HTR) (5-HT2A receptor [2]): Elevated incidences of HTR

CN(C)CCc1c[nH]c2cccc(OC(=O)SCc3ccccc3)c12.Cl [E(VIa1)]
solubility in water [1]: ≥ 10 mg per mL

CN(C)CCc1c[nH]c2cccc(OC(=O)SCc3ccccc3)c12 [E(VI)]
5-HT1A receptor modulation (cAMP, +5-HT1A vs −5-HT1A cultures) (5-HT1A receptor): mild receptor modulation at higher ligand concentrations
half-life (T1/2) [8]: 6 min
half-life (T1/2) [9]: 5 min
stability / dissociation to psilocin in serum [3]: nearly completely disappears
conversion to psilocin ([5]; liver fractions and serum): quickly converted to psilocin in liver fractions and serum
Head Twitch Response, E(VI) compared to B(II) (5-HT2A receptor [2]): elevated response
Head Twitch Response (HTR) (5-HT2A receptor [2]; 1 mg/kg): Elevated incidences of HTR; also recorded: elicit head twitching
detection of the derivative in plasma ([6]; oral 1 mg/kg): neither B(II) nor E(VI) were detected in plasma
detection of the derivative in plasma ([6]; oral 3 mg/kg and 10 mg/kg): never detected at any timepoint

COc1ccc(C(=O)Oc2cccc3[nH]cc(CCN(C)C)c23)cc1 [C(Va1)]
solubility in water [1]: ≥ 10 mg per mL
